According to PubChem BioAssay AID248 (DTP/NCI, 2004):
Values joined by “and” are separate entries in the source; they are usually repeats but may differ in a detail not shown here. Equal entries are not always repeated. Toxic doses and inconclusive results are not listed.

Test system: L1210 leukemia ip in BDF1 mice, survival T/C
Test: NCI In Vivo Anticancer Drug Screen. Data for tumor model L1210 Leukemia (intraperitoneal) in B6D2F1 (BDF1) mice
Conditions: endpoint: mean survival time, higher = longer survival
Method in brief: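 In this screen, tumor-bearing mice given compound are compared to those given vehicle, and their survival values are reported as a treated-to-control quotient.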

[1] = dose: 10.0 mg/kg/injection, schedule: Q01DX001 (ip), vehicle: saline
[2] = dose: 20.0 mg/kg/injection, schedule: Q01DX001 (ip), vehicle: saline
[3] = dose: 40.0 mg/kg/injection, schedule: Q01DX001 (ip), vehicle: saline
[4] = dose: 100.0 mg/kg/injection, schedule: Q01DX009 (ip), vehicle: Klucel (hydroxypropylcellulose) (HPC)
[5] = dose: 200.0 mg/kg/injection, schedule: Q01DX009 (ip), vehicle: Klucel (hydroxypropylcellulose) (HPC)
[6] = dose: 400.0 mg/kg/injection, schedule: Q01DX009 (ip), vehicle: Klucel (hydroxypropylcellulose) (HPC)
[7] = dose: 100.0 mg/kg/injection, schedule: Q04DX002 (ip), vehicle: Klucel (hydroxypropylcellulose) (HPC)
[8] = dose: 200.0 mg/kg/injection, schedule: Q04DX002 (ip), vehicle: Klucel (hydroxypropylcellulose) (HPC)
[9] = dose: 400.0 mg/kg/injection, schedule: Q04DX002 (ip), vehicle: Klucel (hydroxypropylcellulose) (HPC)
[10] = dose: 50.0 mg/kg/injection, schedule: Q01DX001 (ip), vehicle: saline
[11] = dose: 100.0 mg/kg/injection, schedule: Q01DX001 (ip), vehicle: saline
[12] = dose: 200.0 mg/kg/injection, schedule: Q01DX001 (ip), vehicle: saline
[13] = dose: 400.0 mg/kg/injection, schedule: Q01DX001 (ip), vehicle: saline
[14] = dose: 25.0 mg/kg/injection, schedule: Q01DX009 (ip), vehicle: saline with Tween-80
[15] = dose: 50.0 mg/kg/injection, schedule: Q01DX009 (ip), vehicle: saline with Tween-80
[16] = dose: 100.0 mg/kg/injection, schedule: Q01DX001 (ip), vehicle: carboxymethylcellulose (CMC)
[17] = dose: 200.0 mg/kg/injection, schedule: Q01DX001 (ip), vehicle: carboxymethylcellulose (CMC)
[18] = dose: 400.0 mg/kg/injection, schedule: Q01DX001 (ip), vehicle: carboxymethylcellulose (CMC)
[19] = dose: 100.0 mg/kg/injection, schedule: Q04DX003 (ip), vehicle: Klucel (hydroxypropylcellulose) (HPC)
[20] = dose: 200.0 mg/kg/injection, schedule: Q04DX003 (ip), vehicle: Klucel (hydroxypropylcellulose) (HPC)
[21] = dose: 400.0 mg/kg/injection, schedule: Q04DX003 (ip), vehicle: Klucel (hydroxypropylcellulose) (HPC)

CC(=O)Nc1ccc(-c2cnc3ccccc3c2)cc1
T/C (dose: 5.0 mg/kg/injection, schedule: Q01DX001 (ip), vehicle: saline): 106 % of control
T/C [1]: 106 % of control
T/C [2]: 97 % of control
T/C [3]: 90 % of control
T/C (dose: 80.0 mg/kg/injection, schedule: Q01DX001 (ip), vehicle: saline): 95 % of control

O=C1CCC2(CC2)C(=O)O1
T/C (dose: 100.0 mg/kg/injection, schedule: Q04DX003 (ip), vehicle: saline): 91 % of control
T/C (dose: 200.0 mg/kg/injection, schedule: Q04DX003 (ip), vehicle: saline): 95 % of control
T/C (dose: 400.0 mg/kg/injection, schedule: Q04DX003 (ip), vehicle: saline): 91 % of control

CCCCCCCCCCCCCCOc1ccc(Cl)cc1Cl
T/C [4]: 107 % of control
T/C [5]: 100 % of control
T/C [6]: 105 % of control

COc1ccccc1C(=O)Nc1ccccc1SC
T/C [7]: 93 % of control
T/C [8]: 93 % of control
T/C [9]: 93 % of control

CC(=O)OCC(=O)C12OC1CC1C3CCC4CC(O)CCC4(C)C3CC(=O)C12C (stereo not drawn)
T/C (dose: 6.0 mg/kg/injection, schedule: Q04DX002 (ip), vehicle: other): 91 % of control
T/C (dose: 12.5 mg/kg/injection, schedule: Q04DX002 (ip), vehicle: other): 106 % of control
T/C (dose: 25.0 mg/kg/injection, schedule: Q04DX002 (ip), vehicle: other): 98 % of control
T/C (dose: 50.0 mg/kg/injection, schedule: Q04DX002 (ip), vehicle: other): 98 % of control

CC1(C)C2(SCCS2)C(C)(C)C12SCCS2
T/C [4]: 96 % of control
T/C [5]: 95 % of control
T/C [6]: 104 % of control

C1CCC(N2CN(C3CCCCC3)CN(C3CCCCC3)C2)CC1
T/C [7]: 97 % of control
T/C [8]: 106 % of control
T/C [9]: 115 % of control

CN(C)S(=O)(=O)c1ccc(CCc2ccc(S(=O)(=O)N(C)C)cc2)cc1
T/C [10]: 93 % of control
T/C [11]: 91 % of control
T/C [12]: 91 % of control
T/C [13]: 96 % of control

Nc1ccc(Cl)cc1-c1ccccc1
T/C (dose: 55.0 mg/kg/injection, schedule: Q01DX Z (ip), vehicle: saline): 105 % of control
T/C (dose: 125.0 mg/kg/injection, schedule: Q01DX Z (ip), vehicle: saline): 104 % of control

Cn1ncc2ccccc21
T/C (dose: 62.5 mg/kg/injection, schedule: Q01DX009 (ip), vehicle: other): 101 % of control
T/C (dose: 125.0 mg/kg/injection, schedule: Q01DX009 (ip), vehicle: other): 102 % of control
T/C (dose: 250.0 mg/kg/injection, schedule: Q01DX009 (ip), vehicle: other): 93 % of control

COc1ccc(/C=N/NC(=O)CNC(=O)c2ccccc2)cc1
T/C [14]: 93 % of control
T/C [15]: 95 % of control
T/C (dose: 100.0 mg/kg/injection, schedule: Q01DX009 (ip), vehicle: saline with Tween-80): 91 % of control

c1ccc(P(OCCCCOP(c2ccccc2)c2ccccc2)c2ccccc2)cc1
T/C [10]: 95 % of control
T/C [16]: 103 % of control
T/C [11]: 97 % of control
T/C [17]: 114 % of control
T/C [12]: 86 % of control
T/C [18]: 103 % of control
T/C [13]: 95 % of control

CCCCC(C(C)=O)C(C)C (stereo not drawn)
T/C [4]: 94 % of control
T/C [19]: 100 % of control
T/C [5]: 91 % of control
T/C [20]: 96 % of control
T/C [6]: 95 % of control
T/C [21]: 92 % of control

O=C(Nc1ccccc1)Oc1cccnc1
T/C (dose: 100.0 mg/kg/injection, schedule: Q01DX001 (ip), vehicle: Klucel (hydroxypropylcellulose) (HPC)): 98 % of control
T/C (dose: 200.0 mg/kg/injection, schedule: Q01DX001 (ip), vehicle: Klucel (hydroxypropylcellulose) (HPC)): 100 % of control
T/C (dose: 400.0 mg/kg/injection, schedule: Q01DX001 (ip), vehicle: Klucel (hydroxypropylcellulose) (HPC)): 98 % of control

CC(=O)OC1CCCCC1NC(=O)N(CCCl)N=O (stereo not drawn)
T/C (dose: 27.0 mg/kg/injection, schedule: Q01DX001 (ip), vehicle: carboxymethylcellulose (CMC)): 333 % of control
T/C (dose: 40.0 mg/kg/injection, schedule: Q01DX001 (ip), vehicle: carboxymethylcellulose (CMC)): 423 % of control
T/C (dose: 60.0 mg/kg/injection, schedule: Q01DX001 (ip), vehicle: carboxymethylcellulose (CMC)): 422 % of control
T/C (dose: 90.0 mg/kg/injection, schedule: Q01DX001 (ip), vehicle: carboxymethylcellulose (CMC)): 170 % of control

Cn1cnc2nc(Cl)[nH]c(=O)c21
T/C [19]: 100 % of control
T/C [20]: 97 % of control
T/C [21]: 95 % of control

O=C(O)c1ccccc1CN1CCCC(C(=O)O)C1 (stereo not drawn)
T/C (dose: 6.25 mg/kg/injection, schedule: Q01DX009 (ip), vehicle: saline with Tween-80): 101 % of control
T/C (dose: 12.5 mg/kg/injection, schedule: Q01DX009 (ip), vehicle: saline with Tween-80): 97 % of control
T/C [14]: 92 % of control

NC(=O)c1ccc([N+](=O)[O-])cc1C(N)=O
T/C (dose: 25.0 mg/kg/injection, schedule: Q01DX001 (ip), vehicle: saline): 111 % of control
T/C [10]: 97 % of control
T/C [11]: 104 % of control

Cc1ccc(CCCC#N)[nH]1
T/C (dose: 100.0 mg/kg/injection, schedule: Q01DX001 (sc), vehicle: carboxymethylcellulose (CMC)): 110 % of control
T/C (dose: 200.0 mg/kg/injection, schedule: Q01DX001 (sc), vehicle: carboxymethylcellulose (CMC)): 113 % of control

CCCCCCCCC(=O)N(CCC)CCC
T/C (dose: 100.0 mg/kg/injection, schedule: Q01DX009 (ip), vehicle: carboxymethylcellulose (CMC)): 94 % of control and 97 % of control
T/C (dose: 100.0 mg/kg/injection, schedule: Q04DX002 (ip), vehicle: carboxymethylcellulose (CMC)): 96 % of control
T/C (dose: 200.0 mg/kg/injection, schedule: Q01DX009 (ip), vehicle: carboxymethylcellulose (CMC)): 93 % of control and 96 % of control
T/C (dose: 200.0 mg/kg/injection, schedule: Q04DX002 (ip), vehicle: carboxymethylcellulose (CMC)): 96 % of control
T/C (dose: 400.0 mg/kg/injection, schedule: Q01DX009 (ip), vehicle: carboxymethylcellulose (CMC)): 94 % of control and 90 % of control
T/C (dose: 400.0 mg/kg/injection, schedule: Q04DX002 (ip), vehicle: carboxymethylcellulose (CMC)): 96 % of control

CCCCCCCCCCCCCCC[n+]1ccc(C#N)cc1
T/C (dose: 5.0 mg/kg/injection, schedule: Q01DX009 (ip), vehicle: acetone): 101 % of control
T/C [1]: 93 % of control
T/C (dose: 10.0 mg/kg/injection, schedule: Q01DX009 (ip), vehicle: acetone): 100 % of control
T/C (dose: 10.0 mg/kg/injection, schedule: Q04DX003 (ip), vehicle: saline): 101 % of control
T/C [2]: 93 % of control
T/C (dose: 20.0 mg/kg/injection, schedule: Q04DX003 (ip), vehicle: saline): 94 % of control
T/C [3]: 98 % of control
T/C (dose: 40.0 mg/kg/injection, schedule: Q04DX003 (ip), vehicle: saline): 92 % of control

COc1ccc(C)cc1NC(=S)NC(=O)c1ccc(Cl)cc1Cl
T/C [14]: 93 % of control and 105 % of control
T/C [15]: 93 % of control and 94 % of control
T/C (dose: 100.0 mg/kg/injection, schedule: Q04DX002 (ip), vehicle: saline with Tween-80): 96 % of control
T/C (dose: 100.0 mg/kg/injection, schedule: Q04DX003 (ip), vehicle: saline with Tween-80): 98 % of control
T/C (dose: 200.0 mg/kg/injection, schedule: Q04DX002 (ip), vehicle: saline with Tween-80): 93 % of control and 107 % of control
T/C (dose: 200.0 mg/kg/injection, schedule: Q04DX003 (ip), vehicle: saline with Tween-80): 95 % of control
T/C (dose: 400.0 mg/kg/injection, schedule: Q01DX009 (ip), vehicle: saline with Tween-80): 96 % of control
T/C (dose: 400.0 mg/kg/injection, schedule: Q04DX002 (ip), vehicle: saline with Tween-80): 93 % of control and 98 % of control

COC(=O)c1[nH]cnc1N
T/C (dose: 50.0 mg/kg/injection, schedule: Q01DX001 (ip), vehicle: carboxymethylcellulose (CMC)): 97 % of control
T/C [16]: 105 % of control
T/C [17]: 97 % of control
T/C [18]: 94 % of control
